Converted amounts (≈) assume the structure as drawn.
Columns and labels:
[1] = Selectivity index ratio IC50 for human MRC5 cells to IC50 for Trypanosoma brucei brucei GUTat3.1; assay type: functional
[2] = test system: Plasmodium falciparum; test: Antimalarial activity against drug-resistant Plasmodium falciparum K1 infected human erythrocytes after 72 hrs; assay type: functional, organism-based; details: K1, 72 h
[3] = test system: Plasmodium falciparum; test: Antimalarial activity against drug-sensitive Plasmodium falciparum FCR3 infected human erythrocytes after 72 hrs; assay type: functional, organism-based; details: FCR3, 72 h
[4] = Selectivity index ratio IC50 for human MRC5 cells to IC50 for Plasmodium falciparum K1; assay type: functional
[5] = Selectivity index ratio IC50 for human MRC5 cells to IC50 for Plasmodium falciparum FCR3; assay type: functional
[6] = test system: MRC5; test: Cytotoxicity against human MRC5 cells after 7 days by MTT assay; assay type: cell-based; details: MRC5, 168 h
[7] = test system: Trypanosoma brucei brucei; test: Antitrypanosomal activity against Trypanosoma brucei brucei GUTat3.1 after 72 hrs by alamar blue assay; assay type: functional, organism-based; details: GUTat3.1, 72 h
[8] = test system: Trypanosoma brucei rhodesiense; test: Antitrypanosomal activity against Trypanosoma brucei rhodesiense STIB900 trypomastigotes; assay type: functional, organism-based
[9] = test system: Plasmodium falciparum; test: Antimalarial activity against Plasmodium falciparum D10; assay type: functional, organism-based
[10] = test system: Plasmodium falciparum; test: Antimalarial activity against Plasmodium falciparum FAC8; assay type: functional, organism-based

| Structure (SMILES) | Ratio IC50 [1] | IC50 [2] | IC50 [3] | Ratio IC50 [4] | Ratio IC50 [5] | IC50 [6] | IC50 [7] | IC50 [8] | IC50 [9] | IC50 [10] |
| --- | --- | --- | --- | --- | --- | --- | --- | --- | --- | --- |
| CC(=O)O[C@H]1[C@H]2c3cc4c(cc3CN3CCC(=C[C@@H]1O)[C@H]23)OCO4 | 0.2 | 0.36 µg/mL (≈ 1.09 µM) | 0.3 µg/mL (≈ 0.911 µM) | 3.6 | 4.3 | 1.29 µg/mL (≈ 3.92 µM) | 5.22 µg/mL (≈ 15.8 µM) | – | – | – |
| CC(=O)O[C@H]1[C@H]2c3cc4c(cc3CN3CCC(=C[C@@H]1OC(C)=O)[C@H]23)OCO4 | <1.4 | 7.6 µg/mL (≈ 20.5 µM) | – | 2.4 | – | 18.1 µg/mL (≈ 48.8 µM) | > 12.5 µg/mL | 1 µg/mL (≈ 2.69 µM) | 1 µg/mL (≈ 2.69 µM) | 1 µg/mL (≈ 2.69 µM) |
| CCC(=O)O[C@H]1[C@H]2c3cc4c(cc3CN3CCC(=C[C@@H]1O)[C@H]23)OCO4 | 3.7 | 0.37 µg/mL (≈ 1.08 µM) | 0.3 µg/mL (≈ 0.874 µM) | 13.5 | 16.6 | 4.99 µg/mL (≈ 14.5 µM) | 1.34 µg/mL (≈ 3.9 µM) | – | – | – |
| CCCC(=O)O[C@H]1[C@H]2c3cc4c(cc3CN3CCC(=C[C@@H]1OC(=O)CCC)[C@H]23)OCO4 | – | 0.67 µg/mL (≈ 1.57 µM) | 0.53 µg/mL (≈ 1.24 µM) | 21.7 | 27.5 | – | – | – | – | – |
| CCCC(=O)O[C@H]1[C@H]2c3cc4c(cc3CN3CCC(=C[C@@H]1O)[C@H]23)OCO4 | 2.6 | 0.41 µg/mL (≈ 1.15 µM) | 0.32 µg/mL (≈ 0.895 µM) | 8.8 | 11.3 | 3.6 µg/mL (≈ 10.1 µM) | 1.38 µg/mL (≈ 3.86 µM) | – | – | – |
| C[C@@H](O)CC(=O)O[C@@H]1[C@H]2c3cc4c(cc3CN3CCC(=C[C@@H]1O)[C@H]23)OCO4 | 2.6 | 0.62 µg/mL (≈ 1.66 µM) | 0.49 µg/mL (≈ 1.31 µM) | 10.2 | 13 | 6.35 µg/mL (≈ 17 µM) | 2.45 µg/mL (≈ 6.56 µM) | – | – | – |
| CC(=O)O[C@H]1C=C2CCN3Cc4cc5c(cc4[C@H]([C@@H]1O)[C@@H]23)OCO5 | 40.7 | 8.21 µg/mL (≈ 24.9 µM) | – | 0.7 | – | 6.11 µg/mL (≈ 18.6 µM) | 0.15 µg/mL (≈ 0.455 µM) | – | – | – |
| CCC(=O)O[C@H]1[C@H]2c3cc4c(cc3CN3CCC(=C[C@@H]1OC(=O)CC)[C@H]23)OCO4 | – | 4.2 µg/mL (≈ 10.5 µM) | – | >23.8 | – | > 23.8 µg/mL | – | – | – | – |
| C[C@H](O)CC(=O)O[C@H]1[C@H]2c3cc4c(cc3CN3CCC(=C[C@@H]1O)[C@H]23)OCO4 | 4.3 | 0.6 µg/mL (≈ 1.61 µM) | 0.45 µg/mL (≈ 1.21 µM) | 13.5 | 18 | 8.11 µg/mL (≈ 21.7 µM) | 1.9 µg/mL (≈ 5.09 µM) | – | – | – |
| C[C@@H]1CC[C@H]2[C@@H](C)C(=O)O[C@@H]3O[C@@]4(C)CC[C@@H]1[C@]32OO4 [ARTEMISININ] | – | 0.0057 µg/mL (≈ 0.0202 µM) | 0.006 µg/mL (≈ 0.0213 µM) | 7924.5 | 7528.3 | – | – | – | – | – |
| NCCCC(N)(C(=O)O)C(F)F (stereo not drawn) [EFLORNITHINE] | >44 | – | – | – | – | > 100 µg/mL | 2.27 µg/mL (≈ 12.5 µM) | – | – | – |
| N=C(N)c1ccc(OCCCCCOc2ccc(C(=N)N)cc2)cc1 [PENTAMIDINE] | 3614 | – | – | – | – | 5.71 µg/mL (≈ 16.8 µM) | 0.00158 µg/mL (≈ 0.00464 µM) | – | – | – |
| Cc1ccc(C(=O)Nc2ccc(S(=O)(=O)O)c3cc(S(=O)(=O)O)cc(S(=O)(=O)O)c23)cc1NC(=O)c1cccc(NC(=O)Nc2cccc(C(=O)Nc3cc(C(=O)Nc4ccc(S(=O)(=O)O)c5cc(S(=O)(=O)O)cc(S(=O)(=O)O)c45)ccc3C)c2)c1 [SURAMIN] | >63 | – | – | – | – | > 100 µg/mL | 1.58 µg/mL (≈ 1.22 µM) | – | – | – |
